Patent US20250042894A1, “PROTEIN TYROSINE PHOSPHATASE INHIBITORS AND METHODS OF USE THEREOF” (Calico Life Sciences LLC, priority 2021, published 2025)

Assays:
[1] = target: T1, His tagged PTPN2 (TC45) protein (Homo sapiens, UniProt P17706); test: Mobility Shift Assay (MSA) for PTPN2 inhibitors; assay type: biochemical; settings: enzyme 0.5 nM, substrate 2 μM, 10 minutes preincubation at room temperature
T1 construct: His; made in house
T1 sequence (P17706 1-387 isoform P17706-2): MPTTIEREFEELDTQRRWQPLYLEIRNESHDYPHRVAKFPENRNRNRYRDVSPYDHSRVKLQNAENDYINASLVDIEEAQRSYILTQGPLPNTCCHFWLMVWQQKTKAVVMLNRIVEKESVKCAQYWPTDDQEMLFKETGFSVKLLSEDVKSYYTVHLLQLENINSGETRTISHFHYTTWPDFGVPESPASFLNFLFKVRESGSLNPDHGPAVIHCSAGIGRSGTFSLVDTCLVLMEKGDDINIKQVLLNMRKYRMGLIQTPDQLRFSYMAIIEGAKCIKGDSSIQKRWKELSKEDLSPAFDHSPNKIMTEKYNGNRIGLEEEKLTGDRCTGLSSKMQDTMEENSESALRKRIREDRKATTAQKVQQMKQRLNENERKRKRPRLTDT
Experimental: Example 43: Mobility Shift Assay (MSA) Used to Determine Potency of PTPN2 Inhibitors
Compound activity was determined using in house His tagged PTPN2 (TC45) protein (SEQ ID NO: 1) in an in vitro enzymatic reaction. The enzymatic assay used to determine activity was a mobility shift assay using a LabChip EZ Reader by Caliper Life Sciences. The enzymatic reaction was carried out in assay buffer (50 mM HEPES pH 7.5, 1 mM EGTA, 10 mM EDTA, 0.01% Tween® 20, and 2 mM DTT). The compounds were dispensed on a white 384 well ProxiPlate™ (PerkinElmer Catalog #6008289) plate using the Labcyte Echo at varying concentrations (12 point, 1:3 dilution). The enzyme (at 0.5 nM) was incubated with compound for 10 minutes at room temperature. Thereafter, the substrate (phosphorylated insulin receptor probe sequence: ((OG488)-(NH—CH2—CH2—O—CH2—CH2—O—CH2—CO)-T-R-D-I—(PY)-E-T-D-Y—Y—R—K—K—NH2) (SEQ ID NO: 2) was added at 2 μM to the plates and incubated for another 10 minutes at room temperature. Finally, a quench solution (water and 4-bromo-3-(2-oxo-2-propoxyethoxy)-5-(3-{[1-(phenylmethanesulfonyl)piperidin-4-yl]amino}phenyl)thiophene-2-carboxylic acid) was added to the plates, which were then run on the EZ Reader (excitation 488 nm, emission 530 nm) to measure % conversion (the amount of phosphorylated substrate which was de-phosphorylated by PTPN2). […] The % inhibition was then used to calculate the IC50 values.

[2] = target: T2, His tagged full-length PTPN1 protein (Homo sapiens, UniProt P18031); test: Mobility Shift Assay (MSA) for PTPN1 inhibitors; assay type: biochemical; settings: enzyme 0.5 nM, substrate 2 μM, 10 minutes preincubation at room temperature
T2 construct: His; made in house
T2 sequence (P18031 1-435): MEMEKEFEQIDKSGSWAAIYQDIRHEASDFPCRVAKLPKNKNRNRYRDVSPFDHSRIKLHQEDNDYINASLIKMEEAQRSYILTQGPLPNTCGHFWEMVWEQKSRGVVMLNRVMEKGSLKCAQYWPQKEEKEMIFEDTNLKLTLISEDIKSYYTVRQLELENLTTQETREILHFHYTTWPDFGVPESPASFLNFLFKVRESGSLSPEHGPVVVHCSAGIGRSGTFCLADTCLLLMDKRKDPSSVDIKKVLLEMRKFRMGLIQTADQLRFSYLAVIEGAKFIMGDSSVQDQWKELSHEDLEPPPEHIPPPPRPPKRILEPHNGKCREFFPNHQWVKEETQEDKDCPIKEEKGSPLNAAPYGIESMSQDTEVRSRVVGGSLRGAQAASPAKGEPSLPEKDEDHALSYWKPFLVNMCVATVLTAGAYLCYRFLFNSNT
Experimental: Example 44: Mobility Shift Assay (MSA) Used to Determine Potency of PTPN1 Inhibitors
Compound activity was determined using in house His tagged full-length PTPN1 protein (SEQ ID NO: 3) in an in vitro enzymatic reaction. The enzymatic assay used to determine activity is a mobility shift assay using a LabChip EZ Reader by Caliper Life Sciences. The enzymatic reaction was carried out in assay buffer (50 mM HEPES pH 7.5, 1 mM EGTA, 10 mM EDTA, 0.010% Tween® 20, and 2 mM DTT). The compounds were dispensed on a white 384 well ProxiPlate™ (PerkinElmer Cat #6008289) plate using a Labcyte Echo® liquid handler at varying concentrations (12 point, 1:3 dilution). The enzyme (at 0.5 nM) was incubated with compound for 10 minutes at room temperature. Thereafter, the substrate (phosphorylated insulin receptor probe sequence: ((OG488)-(NH—CH2—CH2—O—CH2—CH2—O—CH2—CO)-T-R-D-I—(PY)-E-T-D-Y—Y—R—K—K—NH2) (SEQ ID NO: 2) was added at 2 μM to the plates and incubated for another 10 minutes at room temperature. Finally, a quench solution (water and 4-bromo-3-(2-oxo-2-propoxyethoxy)-5-(3-{[1-(phenylmethanesulfonyl)piperidin-4-yl]amino}phenyl)thiophene-2-carboxylic acid) was added to the plates, which were then run on the EZ Reader (excitation 488 nm, emission 530 nm) to measure % conversion (the amount of phosphorylated substrate which was de-phosphorylated by PTPN1). […] The % inhibition was then used to calculate the IC50 values.

[3] = system: IFNγ-induced STAT1 phosphorylation (pSTAT1) in B16F10 cells; test: B16F10 Phospho-STAT1 HTRF proximal pharmacodynamic (PD) assay; assay type: cell-based, murine; settings: B16-F10; Table 2; 3 hours compound, then mouse IFNγ 100 nM 10 minutes; top dose 50 μM; read-out: B16F10 IFNγ Induced pSTAT1 EC50
Experimental: Example 45: B16F10 (Murine Melanoma Cells) Phospho-STAT1 HTRF Proximal Pharmacodynamic (PD) Assay
B16F10 cells were grown and maintained in high glucose DMEM (Gibco, Catalog #11965-092, Dun Laoghaire Co Dublin) supplemented with 10% fetal bovine serum (Gibco, Catalog #10082-139, Dun Laoghaire Co Dublin). The cells were pelleted and resuspended in high glucose DMEM without phenol red (Gibco, Catalog #11054-020, Dun Laoghaire Co Dublin), supplemented with 10% fetal bovine serum and plated in a 384 well Corning plate (product #3765, Corning, NY) at 11,000 cells per well in a volume of 20 μL. The cells were dosed with the compounds of interest using an Echo Liquid Handler (Beckman Coulter, Brea, CA) at 50 μM top dose with 3-fold dilutions down to 0.002679 μM for a 10-point dose response. The plate was incubated for 3 hours at 37° C. and subsequently treated with recombinant mouse IFNγ (R&D Systems, Catalog #485-MI, Minneapolis, MN; 100 nM final concentration) for 10 minutes at 37° C. to induce STAT1 phosphorylation followed by 3.3 μM staurosporine treatment for 1 hour at 37° C. to terminate phosphorylation. Media was then aspirated and 20 μL of 1× lysis buffer/blocking reagent (Cisbio Phospho-STAT1 kit, part #63ADK026PEH, Bedford, MA) was added. The plate was placed on a plate shaker for 30 minutes at room temperature, sealed, and stored at −80° C. until needed. To thaw, the plate was placed on shaker at room temperature until completely thawed while the antibody master mix was made (1:40 Phospho-STAT1 Eu Cryptate antibody, 1:40 Phospho-STAT1 d2 antibody, with the detection buffer; Cisbio Phospho-STAT1 kit, part #63ADK026PEH, Bedford, MA). The antibody master mix was then dispensed at 4 μL per well into a 384 ProxiPlate Plus (PerkinElmer, part #6008289, Waltham, MA) and 16 μL of lysate was added from the Corning plate to the Proxiplate using a VIAFLO 384 (INTEGRA). The plate was incubated for 3 hours at room temperature and read on an EnVision® (Perkin Elmer) plate reader with laser excitation at 335 nm and emission at 665 nm. Dotmatics Studies (Bishop's Stortford, UK) was utilized to generate all dose-response curves and calculate EC50s and are shown in Table 2.

Row | SMILES | IC50 [2] | EC50 [3] | IC50 [1]
1 | CC(C)N[C@@H]1CSc2cc(O)c(N3CC(=O)NS3(=O)=O)c(F)c2C1 [Compound 116, 5-{(3S)-5-fluoro-7-hydroxy-3-[(propan-2-yl)amino]-3,4-dihydro-2H-1-benzothiopyran-6-yl}-1λ^6,2,5-thiadiazolidine-1,1,3-trione] | > 100 nM | 17200 nM | 10 to 100 nM
2 | CCC(C)(C)CCN[C@@H]1CSc2cc(O)c(N3CC(=O)NS3(=O)=O)c(F)c2C1 [Compound 124, 5-{(3S)-3-[(3,3-dimethylpentyl)amino]-5-fluoro-7-hydroxy-3,4-dihydro-2H-1-benzothiopyran-6-yl}-1λ^6,2,5-thiadiazolidine-1,1,3-trione] | 10 to 100 nM | 6940 nM | < 10 nM
3 | O=C1CN(c2c(O)cc3c(c2F)C[C@H](NCC2(F)CC2)CS3)S(=O)(=O)N1 [Compound 125, 5-[(3S)-5-fluoro-3-{[(1-fluorocyclopropyl)methyl]amino}-7-hydroxy-3,4-dihydro-2H-1-benzothiopyran-6-yl]-1λ^6,2,5-thiadiazolidine-1,1,3-trione] | 10 to 100 nM | > 50000 nM | 10 to 100 nM
4 | O=C1CN(c2c(O)cc3c(c2F)C[C@H](NCC2CC2(F)F)CS3)S(=O)(=O)N1 (stereo partly drawn) [Compound 126, 5-[(3S)-3-{[(2,2-difluorocyclopropyl)methyl]amino}-5-fluoro-7-hydroxy-3,4-dihydro-2H-1-benzothiopyran-6-yl]-1λ^6,2,5-thiadiazolidine-1,1,3-trione] | 10 to 100 nM | 25500 nM | 10 to 100 nM
5 | CC1(CN[C@@H]2CSc3cc(O)c(N4CC(=O)NS4(=O)=O)c(F)c3C2)COC1 [Compound 127, 5-[(3S)-5-fluoro-7-hydroxy-3-{[(3-methyloxetan-3-yl)methyl]amino}-3,4-dihydro-2H-1-benzothiopyran-6-yl]-1λ^6,2,5-thiadiazolidine-1,1,3-trione] | 10 to 100 nM | 8970 nM | 10 to 100 nM

More lines, main results first:

Row | IC50 [2] | EC50 [3] | SMILES | IC50 [1]
6 | 10 to 100 nM | 723 nM | O=C1CN(c2c(O)cc3c(c2F)C[C@H](NCCC2CC(F)(F)C2)CS3)S(=O)(=O)N1 [Compound 117, 5-[(3S)-3-{[2-(3,3-difluorocyclobutyl)ethyl]amino}-5-fluoro-7-hydroxy-3,4-dihydro-2H-1-benzothiopyran-6-yl]-1λ^6,2,5-thiadiazolidine-1,1,3-trione] | < 10 nM
7 | < 10 nM | 4220 nM | O=C1CN(c2c(O)cc3c(c2F)C[C@H](NCCC2CCCCC2)CS3)S(=O)(=O)N1 [Compound 118, 5-{(3S)-3-[(2-cyclohexylethyl)amino]-5-fluoro-7-hydroxy-3,4-dihydro-2H-1-benzothiopyran-6-yl}-1λ^6,2,5-thiadiazolidine-1,1,3-trione] | < 10 nM
8 | 10 to 100 nM | 6660 nM | CCC(CC)CCN[C@@H]1CSc2cc(O)c(N3CC(=O)NS3(=O)=O)c(F)c2C1 [Compound 119, 5-{(3S)-3-[(3-ethylpentyl)amino]-5-fluoro-7-hydroxy-3,4-dihydro-2H-1-benzothiopyran-6-yl}-1λ^6,2,5-thiadiazolidine-1,1,3-trione] | < 10 nM
9 | < 10 nM | 1010 nM | O=C1CN(c2c(O)cc3c(c2F)C[C@H](NCCC2CCCC2)CS3)S(=O)(=O)N1 [Compound 120, 5-{(3S)-3-[(2-cyclopentylethyl)amino]-5-fluoro-7-hydroxy-3,4-dihydro-2H-1-benzothiopyran-6-yl}-1λ^6,2,5-thiadiazolidine-1,1,3-trione] | < 10 nM
10 | 10 to 100 nM | 8150 nM | O=C1CN(c2c(O)cc3c(c2F)C[C@H](NCc2ccccc2)CS3)S(=O)(=O)N1 [Compound 121, 5-[(3S)-3-(benzylamino)-5-fluoro-7-hydroxy-3,4-dihydro-2H-1-benzothiopyran-6-yl]-1λ^6,2,5-thiadiazolidine-1,1,3-trione] | 10 to 100 nM
11 | 10 to 100 nM | 6390 nM | CC(C)=CCN[C@@H]1CSc2cc(O)c(N3CC(=O)NS3(=O)=O)c(F)c2C1 [Compound 122, 5-{(3S)-5-fluoro-7-hydroxy-3-[(3-methylbut-2-en-1-yl)amino]-3,4-dihydro-2H-1-benzothiopyran-6-yl}-1λ^6,2,5-thiadiazolidine-1,1,3-trione] | 10 to 100 nM
12 | 10 to 100 nM | 2760 nM | O=C1CN(c2c(O)cc3c(c2F)C[C@H](NCCc2ccccc2)CS3)S(=O)(=O)N1 [Compound 123, 5-{(3S)-5-fluoro-7-hydroxy-3-[(2-phenylethyl)amino]-3,4-dihydro-2H-1-benzothiopyran-6-yl}-1λ^6,2,5-thiadiazolidine-1,1,3-trione] | < 10 nM
